# Laboratory results taken from patent US20230390251A1, “METHODS OF TREATING RIBONUCLEOTIDE REDUCTASE-RELATED DISEASES WITH A RIBONUCLEOTIDE REDUCTASE INHIBITOR” (TAIHO PHARMACEUTICAL CO., LTD., priority 2020, published 2023).
# Tests used:
# CFPAC-1 cells [1] = experiment: Cell proliferation assay in CFPAC-1 cells treated with siRNA against SLFN11; format: cell-based; conditions: pancreatic cancer cell line CFPAC-1, siSLFN11 vs siControl, 3 days of exposure
# Procedure: (§1) A673 cells, NCI-H460 cells and CFPAC-1 cells were transfected with 1 nM siRNAs for 24 h using Lipofectaminet®RNAiMAX Reagent (Thermo Fisher Scientific Inc.) and then re-seeded onto a 96-well plate for cell proliferation assay and caspase induction assay and onto dishes for immunoblotting analysis. siRNAs were obtained from Thermo Fisher Scientific Inc. as follows: Silencer® Select Negative Control #1 siRNA (#4390843 used as siControl), SLFN11 Silencer® Select Pre-designed siRNA (#s40703 used as siSLFN11-1, #s40704 as siSLFN11-2, and #s40702 as siSLFN11-3).
# (§2) Cell proliferation assay was performed in accordance with conventional methods, available in Hasako, et al., ibid. Briefly, cells treated with siRNAs for 24 h were plated onto 96 well plate and incubated for 24 h, followed by 3 days of exposure to the compound A. After compound exposure, viable cells were detected by using the CellTiter-Glo luminescent cell viability assay (Promega).
# [2] = Body weight change as index of toxicity in MV-4-11 tumor-bearing nude mice; format: in vivo
# CFPAC-1 cells [3] = experiment: Caspase-Glo 3/7 caspase induction assay in CFPAC-1 cells treated with siRNA against SLFN11; format: cell-based; conditions: 10 micro mol/L, 24 h; CFPAC-1 cells transfected with siRNA against SLFN11
# Procedure: as §1
# Caspase induction assay was performed in accordance with conventional methods, available in Hasako., et al., ibid. Briefly, the cells with siRNAs for 24 h were seeded onto 96 well plate, incubated for 24 h, and then treated with Compound A for 24 h. Caspase induction was detected by using the Caspase-Glo 3/7 assay (Promega).
# NCI-H460 cells = experiment: Cell proliferation assay in NCI-H460 cells treated with siRNA against SLFN11; format: cell-based; conditions: non-small cell lung cancer cell line NCI-H460, siSLFN11 vs siControl, 3 days of exposure
# Procedure: as §1, §2
smiles,measurement,setting,value
"Cc1ccc(F)c([C@@H](C)[C@H](NS(=O)(=O)c2ccc(Cl)cc2C(N)=O)c2n[nH]c(=O)o2)c1C [Compound A, 5-chloro-2-(N-((1S,2R)-2-(6-fluoro-2,3-dimethylphenyl)-1-(5-oxo-4,5-dihydro-1,3,4-oxadiazol-2-yl)propyl)sulfamoyl)benzamide]",effect of SLFN11 knockdown with siRNA on the cytotoxic effect,CFPAC-1 cells [1],SLFN11 knockdown significantly suppressed the cytotoxic effect
same,"recovery indicated by BW change %, Group 3QW1-1 compared with Group C-1","[2]; 3QW (consecutive) 233 mg/kg/day vs continuous 100 mg/kg/day, total dosage 1400 mg/kg, Day 15, t-test p<0.05",better with a statistically significant difference relative to Group C-1
same,"recovery indicated by BW change %, Group 3QW1-2 compared with Group C-2","[2]; 3QW (consecutive) 350 mg/kg/day vs continuous 150 mg/kg/day, total dosage 2100 mg/kg, Day 15, t-test p<0.05",better with a statistically significant difference relative to Group C-2
same,"recovery indicated by BW change %, Group 3QW2-1 compared with Group C-1","[2]; 3QW (every other day) 233 mg/kg/day vs continuous 100 mg/kg/day, total dosage 1400 mg/kg, Day 15, t-test p<0.05",better with a statistically significant difference relative to Group C-1
same,"recovery indicated by BW change %, Group 3QW2-2 compared with Group C-2","[2]; 3QW (every other day) 350 mg/kg/day vs continuous 150 mg/kg/day, total dosage 2100 mg/kg, Day 15, t-test p<0.05",better with a statistically significant difference relative to Group C-2
same,body weight loss (BW change %),"[2]; 3QW Dosing Group 1, 233 or 350 mg/kg/day orally Days 1-3 and 8-10",body weight loss was observed
same,body weight loss (BW change %),"[2]; 3QW Dosing Group 2, 233 or 350 mg/kg/day orally Days 1, 3, 5, 8, 10 and 12",body weight loss was observed
same,"BW change %, Group 5QW2-1 compared with Group C-1","[2]; 5QW (2 on/1 off/3 on/1 off) 140 mg/kg/day vs continuous 100 mg/kg/day, total dosage 1400 mg/kg, Day 15",a statistically significant difference could not be observed
same,"recovery indicated by BW change %, Group 5QW2-2 compared with Group C-2","[2]; 5QW (2 on/1 off/3 on/1 off) 210 mg/kg/day vs continuous 150 mg/kg/day, total dosage 2100 mg/kg, Day 15, t-test p<0.05",better with a statistically significant difference relative to Group C-2
same,"recovery indicated by BW change %, Group 5QW1-1 compared with Group C-1","[2]; 5QW (consecutive) 140 mg/kg/day vs continuous 100 mg/kg/day, total dosage 1400 mg/kg, Day 15, t-test p<0.05",better with a statistically significant difference relative to Group C-1
same,"recovery indicated by BW change %, Group 5QW1-2 compared with Group C-2","[2]; 5QW (consecutive) 210 mg/kg/day vs continuous 150 mg/kg/day, total dosage 2100 mg/kg, Day 15, t-test p<0.05",better with a statistically significant difference relative to Group C-2
same,body weight loss (BW change %),"[2]; 5QW Dosing Group 1, 140 or 210 mg/kg/day orally Days 1-5 and 8-12",body weight loss was observed
same,body weight loss (BW change %),"[2]; 5QW Dosing Group 2, 140 or 210 mg/kg/day orally Days 1-2, 4-6, 8-9 and 11-13",body weight loss was observed
same,body weight loss (BW change %),"[2]; Continuous Dosing Group, 100 or 150 mg/kg/day orally once daily Day 1 to Day 14",body weight loss was observed
same,"BW change %, Group QOD-1 compared with Group C-1","[2]; QOD 200 mg/kg/day vs continuous 100 mg/kg/day, total dosage 1400 mg/kg",a statistically significant difference could not be observed
same,"recovery indicated by BW change %, Group QOD-2 compared with Group C-2","[2]; QOD 300 mg/kg/day vs continuous 150 mg/kg/day, total dosage 2100 mg/kg, Day 15, t-test p<0.05",better with a statistically significant difference compared with Group C-2
same,body weight loss (BW change %),"[2]; QOD Dosing Group, 200 or 300 mg/kg/day orally every other day for two weeks",body weight loss was observed
same,"recovery indicated by BW change %, Group QW-1 compared with Group C-1","[2]; QW 700 mg/kg/day vs continuous 100 mg/kg/day, total dosage 1400 mg/kg, Day 15, t-test p<0.05",better with a statistically significant difference than Group C-1
same,"recovery indicated by BW change %, Group QW-2 compared with Group C-2","[2]; QW 1050 mg/kg/day vs continuous 150 mg/kg/day, total dosage 2100 mg/kg, Day 15, t-test p<0.05",better with Group QW-2 having a statistically significant difference relative to Group C-2
same,body weight loss (BW change %),"[2]; QW Dosing Group, 700 or 1050 mg/kg/day orally once per week for two weeks",body weight loss was observed
same,compound-induced caspase-3/7 activation after SLFN11 knockdown,CFPAC-1 cells [3],suppression
same,effect of SLFN11 knockdown with siRNA on the cytotoxic effect,NCI-H460 cells,SLFN11 knockdown significantly suppressed the cytotoxic effect
